From patent US20240325390A1 (Aerovate Therapeutics, Inc., priority 2020, published 2024)
Structures can show the parent of a compound that is named as a salt. Where two headings read alike, the source gives them in different places. One block for each compound: values may come before it.

Experiments:
[1] = clinical; settings: human, in vivo
[2] = imatinib in plasma, MAD Day 7, mean
[3] = clinical; settings: human, plasma; for AUC / AUC(0-t) / Cmax: inhaled or intranasal; for Cmax / concentration at 7 day: imatinib in plasma, mean; for concentration at 7 day: inhaled

AUC(0-t) ([1]; inhaled or intranasal, 1 mg): 9.9 ng·h/mL
Cmax ([1]; inhaled or intranasal, 1 mg): 1.16 ng/mL
Tmax ([1]; inhaled or intranasal, 1 mg): 3 h
AUC(0-t) ([1]; inhaled or intranasal, 3 mg): 65.4 ng·h/mL
Cmax ([1]; inhaled or intranasal, 3 mg): 3.81 ng/mL
AUC(0-t) ([1]; inhaled or intranasal, 10 mg): 319 ng·h/mL
Cmax ([1]; inhaled or intranasal, 10 mg): 20.2 ng/mL
Tmax ([1]; inhaled or intranasal, 10 mg): 0.18 h
AUC(0-t) ([1]; inhaled or intranasal, 30 mg): 1280 ng·h/mL
Cmax ([1]; inhaled or intranasal, 30 mg): 73.8 ng/mL
AUC(0-t) ([1]; inhaled or intranasal, 90 mg): 6670 ng·h/mL
Cmax ([1]; inhaled or intranasal, 90 mg): 424 ng/mL
Fluctuation ([2]; inhaled 10 mg AV-101 BID): 78.28%
Fluctuation ([2]; inhaled 30 mg AV-101 BID): 70.30%
Fluctuation ([2]; inhaled 90 mg AV-101 BID): 67.18%
AUC ([3]; 10 mg): 590 ng·h/mL
AUC(0-t) ([3]; 10 mg): 182 ng·h/mL
Cmax ([3]; 10 mg, MAD Day 1, inhaled 10 mg AV-101): 24.1 ng/mL
Cmax ([3]; 10 mg, ss, MAD Day 7, inhaled 10 mg AV-101 BID): 69.2 ng/mL
AUC ([3]; 30 mg): 1920 ng·h/mL
AUC(0-t) ([3]; 30 mg): 673 ng·h/mL
Cmax ([3]; 30 mg, MAD Day 1, inhaled 30 mg AV-101): 88.7 ng/mL
Cmax ([3]; 30 mg, ss, MAD Day 7, inhaled 30 mg AV-101 BID): 215 ng/mL
AUC ([3]; 90 mg): 7970 ng·h/mL
AUC(0-t) ([3]; 90 mg): 2210 ng·h/mL
Cmax ([3]; 90 mg, MAD Day 1, inhaled 90 mg AV-101): 262 ng/mL
Cmax ([3]; 90 mg, ss, MAD Day 7, inhaled 90 mg AV-101 BID): 890 ng/mL
concentration at 7 day ([3]; 10 mg, Cav, MAD Day 7, inhaled 10 mg AV-101 BID): 49.1 ng/mL
concentration at 7 day ([3]; 10 mg, Cmin, ss, MAD Day 7, inhaled 10 mg AV-101 BID): 31.7 ng/mL
concentration at 7 day ([3]; 30 mg, Cav, MAD Day 7, inhaled 30 mg AV-101 BID): 160 ng/mL
concentration at 7 day ([3]; 30 mg, Cmin, ss, MAD Day 7, inhaled 30 mg AV-101 BID): 118 ng/mL
concentration at 7 day ([3]; 90 mg, Cav, MAD Day 7, inhaled 90 mg AV-101 BID): 664 ng/mL
concentration at 7 day ([3]; 90 mg, Cmin, ss, MAD Day 7, inhaled 90 mg AV-101 BID): 534 ng/mL
SMILES: Cc1ccc(NC(=O)c2ccc(CN3CCN(C)CC3)cc2)cc1Nc1nccc(-c2cccnc2)n1 [AV-101, imatinib]

AUC(0-t) ([1]; po, 400 mg): 32700 ng·h/mL
Cmax ([1]; po, 400 mg): 1710 ng/mL
SMILES: Cc1ccc(NC(=O)c2ccc(CN3CCN(C)CC3)cc2)cc1Nc1nccc(-c2cccnc2)n1 [Imatinib, imatinib mesylate, reference compound]
